# Patent publication US12589093B2, “Plasma kallikrein inhibitors and methods of use thereof in ocular disorders” (BIOCRYST PHARMACEUTICALS, INC., priority 2019, dated 2026)
# Key:
# [1] = Partition coefficient (octanol-phosphate buffer); assay type: physicochemical; conditions: pH 7.4
# [2] = Aqueous solubility (deionized water); assay type: physicochemical; conditions: room temperature
# pKa by UV-metric method = assay type: physicochemical; conditions: read-out: pKa Values (second value)
# Dutch belted rabbits = test: Ocular tolerability after suprachoroidal (SCS) injection; assay type: in vivo
# Method: (§1) Dutch belted rabbits were used in the study.
# (§2) 100 μL of the suspension was administered bilaterally to the suprachoroidal space of the eye, at a dose of 0.5 mg/eye. Two rabbits (4 eyes) were treated per time point, except at day 28, when 3 rabbits were treated. Plasma was collected at 3 hours, 1 day, 3 days, 7 days, 10 days, 14 days, 21 days, 28 days, 56 days, and 84 days post-dose. Aqueous humor, vitreous humor, peripheral retina, peripheral sclera/choroid/RPE, central retina, and central sclera/choroid/RPE punch punch tissues were collected at 1 day, 7 days, 14 days, 28 days, 56 days and 84 days post-dose. Ocular examinations and intraocular pressure (IOP) were also assessed, anterior and posterior segments, at 1 day, 7 days, 14 days, 28 days, 56 days, and 84 days post-dose. Redness, chemosis, discharge, opacity, aqueous flare, cellular flare, vitreous flare, retinal vasculature, retinal and choroidal pathology were assessed at those time points.
# human plasma kallikrein = target: T1, human plasma kallikrein (Homo sapiens, UniProt P03952); test: Plasma kallikrein activity, chromogenic substrate S2302; assay type: biochemical
# T1 construct: purchased Enzyme Research Laboratories, South Bend, IN, USA
# T1 sequence (P03952 391-638 limits assumed): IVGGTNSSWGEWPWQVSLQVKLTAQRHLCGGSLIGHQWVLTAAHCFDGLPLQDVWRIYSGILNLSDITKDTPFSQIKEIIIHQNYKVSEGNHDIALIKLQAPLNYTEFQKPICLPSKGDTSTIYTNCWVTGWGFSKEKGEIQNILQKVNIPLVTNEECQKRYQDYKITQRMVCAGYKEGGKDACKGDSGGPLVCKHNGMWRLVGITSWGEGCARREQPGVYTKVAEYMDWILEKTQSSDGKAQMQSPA
# T1 sequence (P03952 20-390 partner limits assumed): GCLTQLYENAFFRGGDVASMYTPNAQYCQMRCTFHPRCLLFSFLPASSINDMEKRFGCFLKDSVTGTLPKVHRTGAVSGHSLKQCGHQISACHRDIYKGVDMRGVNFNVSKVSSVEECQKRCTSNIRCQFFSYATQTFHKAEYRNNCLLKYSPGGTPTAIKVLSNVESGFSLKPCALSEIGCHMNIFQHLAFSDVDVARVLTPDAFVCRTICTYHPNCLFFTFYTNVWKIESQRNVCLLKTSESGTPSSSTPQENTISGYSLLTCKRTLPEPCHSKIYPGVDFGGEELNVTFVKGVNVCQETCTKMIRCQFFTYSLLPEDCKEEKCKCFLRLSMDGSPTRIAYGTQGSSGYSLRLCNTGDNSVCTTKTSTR
# Method: The effect of compounds of the disclosure on human plasma kallikrein activity is determined by the method described in Zhang et al. (Medicinal Chemistry, 2006, No. 6, p 547). Briefly, plasma kallikrein activity is determined using a chromogenic substrate (S2302). In these experiments, 2 nM plasma kallikrein (Enzyme Research Laboratories, South Bend, IN, USA) is incubated with 80 μM S2302 (H-D-Pro-Phe-Arg-p-nitroaniline) in the absence or presence of increasing concentrations of compounds of the disclosure in a final volume of 200 μL Tris-HCI buffer (200 mM NaCl; 2.5 mM CaCl2; 50 mM Tris-HCl, pH 7.8). Assay reactions were initiated by adding enzyme into pre-mixed solution of inhibitors and substrate (enzyme initiated reaction) After incubation at 30° C., the activity of plasma kallikrein is measured as a change in absorbance at OD 405 nm (for example using a BioTek PowerWave X340 Microplate Reader, Winooski, VT, USA or equivalent device). Data are analyzed using appropriate software (for example, Four Parameter Logistic Curve, SigmaPlot software, Systat Software, Inc., San Jose, CA, USA or equivalent).
# [3] = Ocular PK (tissue drug levels) after SCS injection; assay type: in vivo, Dutch belted rabbits
# Method: as §1, §2
# [4] = Systemic (plasma) PK after SCS injection; assay type: in vivo, Dutch belted rabbits; conditions: SCS 0.5 mg/eye, FIG. 5
# Method: as §1, §2
smiles,measurement,setting,value
"C=Cc1cc(C(=O)Nc2ccc(C(=N)N)cc2)c(-c2ccc(C(=O)NCC3CC3)nc2C(=O)O)cc1OC.Cl [BCX4161, avoralstat]","Partition Coefficient (octanol-phosphate buffer), log D7.4",[1],log D7.4 = 1.9
same,solubility,[2],20 to 40 µg/mL
same,pKa,pKa by UV-metric method,11.4
same,tolerability,"Dutch belted rabbits; 0.5% suspension, single SCS injection, 0.5 mg/eye",well tolerated
same,ocular exam score,"Dutch belted rabbits; all observations, SCS 0.5 mg/eye",0
same,conjunctival redness and chemosis,"Dutch belted rabbits; day 1 post-dose, SCS 0.5 mg/eye",Mild
same,adverse events,"Dutch belted rabbits; days 7, 14, 28, 56, or 84 post-dose, SCS 0.5 mg/eye",No adverse events
same,inhibition of human plasma kallikrein activity (in words),human plasma kallikrein,potent and highly specific inhibitor
same,duration of highly favorable PK profile,"[3]; 0.5% suspension, single SCS injection",at least 3 months
same,drug levels in central and peripheral RPE/choroid/sclera,"[3]; SCS 0.5 mg/eye, FIG. 1",High drug levels
same,drug levels in central and peripheral retina,"[3]; SCS 0.5 mg/eye, FIG. 2",High levels
same,drug levels in the aqueous humor,"[3]; SCS 0.5 mg/eye, FIG. 4C",low levels
same,drug levels in the vitreous humor,"[3]; SCS 0.5 mg/eye, FIGS. 4A and 4B",moderate to low levels
same,time high drug levels present in central and peripheral RPE/choroid/sclera,[3]; after SCS injection 0.5 mg/eye,≥ 84 days
same,time high drug levels present in central and peripheral retina,[3]; after SCS injection 0.5 mg/eye,≥ 84 days
same,systemic exposure,[4],minimal to no systemic exposure
